Values of other authors as cited in PubChem BioAssay AID1259409 (Chemical Carcinogenesis Research Information System (CCRIS), 2018).

System: rodent chemically induced tumor inhibition, incidence and multiplicity
Experiment: CCRIS tumor inhibitor studies

## CC(C)C(=O)Nc1ccc([N+](=O)[O-])c(C(F)(F)F)c1
Carcinogen: DIETHYLNITROSAMINE, 55-18-5, Dose [Inhibitor]: 0, 0.5 MG/G IN DIET FOR 3 WK BEGINNING AT 25 WK OF AGE (STUDY DURATION: 52 WK), Route [Inhibitor]: ORAL, Species: MOUSE, Strain/Sex: B6C3F1/MALE, Target Tissue: Type of Lesion: LIVER: TUMOR, Dose [Carcinogen]: 0.2 MICROMOLAR/G BW ONCE AT 6 WK OF AGE, Promoter: NONE USED
  tumour outcome (control, treated, inhibition, significance): 81%, 50%, 38%, p<0.05
Carcinogen: DIETHYLNITROSAMINE, 55-18-5, Dose [Inhibitor]: 0, 0.5 MG/G IN DIET FOR 3 WK POST CARCINOGEN DOSE (STUDY DURATION: 52 WK), Route [Inhibitor]: ORAL, Species: MOUSE, Strain/Sex: B6C3F1/MALE, Target Tissue: Type of Lesion: LIVER: TUMOR, Dose [Carcinogen]: 0.2 MICROMOLAR/G BW ONCE AT 6 WK OF AGE, Promoter: NONE USED
  tumour outcome (control, treated, inhibition, significance): 81%, 63%, 22%, not significant
Carcinogen: DIETHYLNITROSAMINE, 55-18-5, Dose [Inhibitor]: 0, 0.5 MG/G IN DIET FOR 27 WK BEGINNING AT 25 WK OF AGE (STUDY DURATION: 52 WK), Route [Inhibitor]: ORAL, Species: MOUSE, Strain/Sex: B6C3F1/MALE, Target Tissue: Type of Lesion: LIVER: TUMOR, Dose [Carcinogen]: 0.2 MICROMOLAR/G BW ONCE, Promoter: NONE USED
  tumour outcome (control, treated, inhibition, significance): 81%, 53%, 35%, p<0.05
Carcinogen: DIETHYLNITROSAMINE, 55-18-5, Dose [Inhibitor]: 0, 0.5 MG/G IN DIET FOR DURATION OF STUDY (STUDY DURATION: 52 WK), Route [Inhibitor]: ORAL, Species: MOUSE, Strain/Sex: B6C3F1/MALE, Target Tissue: Type of Lesion: LIVER: TUMOR, Dose [Carcinogen]: 0.2 MICROMOLAR/G BW ONCE AT 6 WK OF AGE, Promoter: NONE USED
  tumour outcome (control, treated, inhibition, significance): 81%, 97%, -20%, p<0.05
Carcinogen: N-BUTYL-N-(4-HYDROXYBUTYL)NITROSAMINE, 3817-11-6, Dose [Inhibitor]: 0, 50 MG/KG 2/WK FOR 11 WK BEGINNING POST CARCINOGEN TREATMENT (STUDY DURATION:21WK), Route [Inhibitor]: ORAL, Species: RAT, Strain/Sex: WISTAR/MALE, Target Tissue: Type of Lesion: URINARY BLADDER: CARCINOMA, Dose [Carcinogen]: 0.05% IN DRINKING WATER FOR 10 WK, Promoter: NONE USED
  tumour outcome (control, treated, inhibition, significance): 15/17 (88%), 12/16, 75%, 15%, not significant
Carcinogen: N-BUTYL-N-(4-HYDROXYBUTYL)NITROSAMINE, 3817-11-6, Dose [Inhibitor]: 0, 50 MG/KG 2/WK FOR 13 WK BEGINNING POST CARCINOGEN TREATMENT (STUDY DURATION: 20 WK), Route [Inhibitor]: ORAL, Species: RAT, Strain/Sex: WISTAR/MALE, Target Tissue: Type of Lesion: URINARY BLADDER: CARCINOMA, Dose [Carcinogen]: 0.05% IN DRINKING WATER FOR 7 WK, Promoter: NONE USED
  tumour outcome (control, treated, inhibition, significance): 25/39 (64%), 10/21 (48%), 25%, not significant
Carcinogen: N-BUTYL-N-(4-HYDROXYBUTYL)NITROSAMINE, 3817-11-6, Dose [Inhibitor]: 0, 200 MG/KG 2/WK FOR 13 WK BEGINNING POST CARCINOGEN TREATMENT (STUDY DURATION:20 WK), Route [Inhibitor]: ORAL, Species: RAT, Strain/Sex: WISTAR/MALE, Target Tissue: Type of Lesion: URINARY BLADDER: CARCINOMA, Dose [Carcinogen]: 0.05% IN DRINKING WATER FOR 7 WK, Promoter: NONE USED
  tumour outcome (control, treated, inhibition, significance): 25/39 (64%), 5/17 (29%), 55%, p<0.05
Carcinogen: N-NUTYL-N-(4-HYDROXYBUTYL)NITROSAMINE, 3817-11-6, Dose [Inhibitor]: 0, 100 MG/KG 2/WK FOR 13 WK BEGINNING POIST CARCINOGEN TREATMENT (STUDY DURATION: 20 WK), Route [Inhibitor]: ORAL, Species: RAT, Strain/Sex: WISTAR/MALE, Target Tissue: Type of Lesion: URINARY BLADDER: CARCINOMA, Dose [Carcinogen]: 0.05% IN DRINKING WATER FOR 7 WK, Promoter: NONE USED
  tumour outcome (control, treated, inhibition, significance): 25/39 (64%), 7/17 (41%), 36%, not significant

## CCCCCN(CCCCC)C(=O)C(CCC(=O)O)NC(=O)c1ccc(Cl)c(Cl)c1 (stereo not drawn)
Carcinogen: 7,12-DIMETHYLBENZ[A]ANTHRACENE, 57-97-6, Dose [Inhibitor]: 0, 12 MG/KG 2/D FOR 15 D POST CARCINOGEN TREATMENT (STUDY DURATION: 6 MO), Route [Inhibitor]: SUBCUTANEOUS, Species: RAT, Strain/Sex: SPRAGUE-DAWLEY/MALE, Target Tissue: Type of Lesion: PANCREAS: CARCINOMA, Dose [Carcinogen]: 2-3 MG ONCE, Promoter: CAERULEIN, 17650-98-5
  tumour outcome (control, treated, inhibition, significance): 11/15 (73%), 7/15 (47%), 36%, p<0.02
Carcinogen: AZASERINE, 115-02-6, Dose [Inhibitor]: 0, 12 MG/KG BW 1/D 3 D/WK FOR 8 MO BEGINNING 4 MO POST FIRST CARCINOGEN DOSE (STUDY DURATION: 8 MO), Route [Inhibitor]: SUBCUTANEOUS, Species: RAT, Strain/Sex: WISTAR/MALE, Target Tissue: Type of Lesion: PANCREAS: TUMOR, Dose [Carcinogen]: 30 MG/KG ON DAYS 19, 26, AND 54 OF AGE, Promoter: CHOLECYSTOKININ, 9011-97-6
  tumour outcome (control, treated, inhibition, significance): 19/34 (56%), 15/35 (43%), 23%, not significant
Carcinogen: AZASERINE, 115-02-6, Dose [Inhibitor]: 0, 12 MG/KG BW 1/D 30 MIN PRIOR TO PROMOTER DOSE 3 D/WK FOR 8 MO BEGINNING 4 MO POST FIRST CARCINOGEN DOSE (STUDY DURATI, Route [Inhibitor]: SUBCUTANEOUS, Species: RAT, Strain/Sex: WISTAR/MALE, Target Tissue: Type of Lesion: PANCREAS: TUMOR, Dose [Carcinogen]: 30 MG/KG ON DAYS 19, 26, AND 54 OF AGE, Promoter: BOMBESIN, 31362-50-2
  tumour outcome (control, treated, inhibition, significance): 28/37 (76%), 18/32 (56%), 26%, not significant

## NC(N)=NC(=O)c1nc(Cl)c(N)nc1N
Carcinogen: AZOXYMETHANE, 25843-45-2, Dose [Inhibitor]: 0, 5 MG/KG BW 1/2 D FOR 35 WK (STUDY DURATION: 35 WK), Route [Inhibitor]: SUBCUTANEOUS, Species: RAT, Strain/Sex: WISTAR/MALE, Target Tissue: Type of Lesion: COLON: TUMOR, Dose [Carcinogen]: 7.4 MG/KG BW 1/WK FOR 10 WK, Promoter: NONE USED
  tumour outcome (control, treated, inhibition, significance): 15/19 (79%), 13/17 (76%), 4%, not significant
Carcinogen: AZOXYMETHANE, 25843-45-2, Dose [Inhibitor]: 0, 7.5 MG/KG BW 1/2 D FOR 35 WK (STUDY DURATION: 35 WK), Route [Inhibitor]: SUBCUTANEOUS, Species: RAT, Strain/Sex: WISTAR/MALE, Target Tissue: Type of Lesion: COLON: TUMOR, Dose [Carcinogen]: 7.4 MG/KG BW 1/WK FOR 10 WK, Promoter: NONE USED
  tumour outcome (control, treated, inhibition, significance): 15/19 (79%), 7/18 (39%), 51%, p<0.001
Carcinogen: N-METHYL-N'-NITRO-N-NITROSOGUANIDINE, 70-25-7, Dose [Inhibitor]: 0, 2.5 MG/KG BW 1/2 D BEGINNING 25 WK POST FIRST CARCINOGEN DOSE AND CONTINUING FOR DURATION OF STUDY (STUDY DURATION: 5, Route [Inhibitor]: SUBCUTANEOUS, Species: RAT, Strain/Sex: WISTAR/MALE, Target Tissue: Type of Lesion: STOMACH: ADENOCARCINOMA, Dose [Carcinogen]: 50 UG/ML IN DRINKING WATER FOR 25 WK, Promoter: NONE USED
  tumour outcome (control, treated, inhibition, significance): 10/20 (50%), 5/17 (29%), 42%, not significant
Carcinogen: N-METHYL-N'-NITRO-N-NITROSOGUANIDINE, 70-25-7, Dose [Inhibitor]: 0, 5 MG/KG BW 1/2 D BEGINNING 25 WK POST FIRST CARCINOGEN DOSE AND CONTINUING FOR DURATION OF STUDY (STUDY DURATION: 52, Route [Inhibitor]: SUBCUTANEOUS, Species: RAT, Strain/Sex: WISTAR/MALE, Target Tissue: Type of Lesion: STOMACH: ADENOCARCINOMA, Dose [Carcinogen]: 50 UG/ML IN DRINKING WATER FOR 25 WK, Promoter: NONE USED
  tumour outcome (control, treated, inhibition, significance): 10/20 (50%), 3/20 (15%), 70%, p<0.05

## C=C(C)[C@@H]1CC[C@]2(C(=O)O)CC[C@]3(C)[C@H](CC[C@@H]4[C@@]5(C)CC[C@H](O)C(C)(C)[C@@H]5CC[C@]43C)[C@@H]12
Carcinogen: 7,12-DIMETHYLBENZ[A]ANTHRACENE, 57-97-6, Dose [Inhibitor]: 0, 5 UMOL 2/WK BEGINNING 1 WK POST CARCINOGEN TREATMENT AND CONTINUING FOR 18 WK (STUDY DURATION: 19 WK), Route [Inhibitor]: DERMAL, Species: MOUSE, Strain/Sex: ICR/FEMALE, Target Tissue: Type of Lesion: SKIN: PAPILLOMA, Dose [Carcinogen]: 50 UG ONCE, Promoter: 12-O-TETRADECANOYLPHORBOL-13-ACETATE, 16561-29-8
  tumour outcome (control, treated, inhibition, significance): 100%, 65%, 35%, not calculated

## CC(O)CCCc1ccccc1 (stereo not drawn)
Carcinogen: 4-(METHYLNITROSAMINO)-1-(3-PYRIDYL)-1-BUTANONE, 64091-91-4, Dose [Inhibitor]: 0, 25 UMOL IN 0.1 ML CORN OIL ONCE 2 HR PRIOR TO CARCINOGEN DOSE (STUDY DURATION: 16 WK), Route [Inhibitor]: GAVAGE, Species: MOUSE, Strain/Sex: STRAIN-A/FEMALE, Target Tissue: Type of Lesion: LUNG: TUMOR, Dose [Carcinogen]: 10 UMOL IN 0.1 ML SALINE ONCE, Promoter: NONE USED
  tumour outcome (control, treated, inhibition, significance): 100%, 100%, 0%, not significant

## O=C1COc2ccccc21
Carcinogen: BENZO[A]PYRENE, 50-32-8, Dose [Inhibitor]: 0.034 MMOL/G IN DIET FOR 5 WK BEGINNING 1 WK PRIOR TO CARCINOGEN TREATMENT (STUDY DURATION: 21 WK), Route [Inhibitor]: ORAL, Species: MOUSE, Strain/Sex: ICR/FEMALE, Target Tissue: Type of Lesion: FORESTOMACH: TUMOR, Dose [Carcinogen]: 1 MG IN 0.2 ML CORN OIL 2/WK FOR 4 WK, Promoter: NONE USED
  tumour outcome (control, treated, inhibition, significance): 95%, 89%, 6%, not significant
